Measured values from publication PMC11167047 (Cell Death Discovery, 2024).

Columns and labels:
Test in all cases: kinome screen (33PanQinase)
Format in all cases: biochemical
[1] = target: T1, AXL (Homo sapiens, UniProt P30530)
T1 construct: purchased Reaction Biology Europe GmbH (formerly ProQinase)
T1 sequence (P30530 26-894): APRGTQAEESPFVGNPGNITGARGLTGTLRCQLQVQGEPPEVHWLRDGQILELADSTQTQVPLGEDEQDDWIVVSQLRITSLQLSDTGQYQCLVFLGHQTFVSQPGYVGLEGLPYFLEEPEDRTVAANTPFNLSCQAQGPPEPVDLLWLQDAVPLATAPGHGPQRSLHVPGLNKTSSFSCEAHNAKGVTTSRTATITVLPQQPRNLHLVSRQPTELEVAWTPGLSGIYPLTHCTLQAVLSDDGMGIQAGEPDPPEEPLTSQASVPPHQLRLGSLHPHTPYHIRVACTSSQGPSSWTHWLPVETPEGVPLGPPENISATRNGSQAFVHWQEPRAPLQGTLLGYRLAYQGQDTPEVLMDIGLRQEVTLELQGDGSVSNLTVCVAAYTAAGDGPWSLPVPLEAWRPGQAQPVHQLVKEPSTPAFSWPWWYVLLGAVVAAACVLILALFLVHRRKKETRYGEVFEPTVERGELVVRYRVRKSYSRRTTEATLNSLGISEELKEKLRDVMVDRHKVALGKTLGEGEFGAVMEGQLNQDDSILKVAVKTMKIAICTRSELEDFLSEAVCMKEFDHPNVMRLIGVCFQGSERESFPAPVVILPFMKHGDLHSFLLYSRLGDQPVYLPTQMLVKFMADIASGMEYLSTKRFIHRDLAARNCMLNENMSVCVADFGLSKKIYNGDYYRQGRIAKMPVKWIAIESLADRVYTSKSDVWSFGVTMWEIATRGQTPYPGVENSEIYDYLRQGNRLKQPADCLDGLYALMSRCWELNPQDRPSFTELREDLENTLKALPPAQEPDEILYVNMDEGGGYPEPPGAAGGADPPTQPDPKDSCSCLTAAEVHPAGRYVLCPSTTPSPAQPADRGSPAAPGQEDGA
Protocol: (§1) The Kinome Screening was performed by Reaction Biology Europe GmbH (http://reactionbiology.com; Freiburg i. Br., Germany).

[2] = target: T2, COT (Homo sapiens, UniProt P41279)
T2 construct: purchased Reaction Biology Europe GmbH (formerly ProQinase)
T2 sequence (P41279 whole entry): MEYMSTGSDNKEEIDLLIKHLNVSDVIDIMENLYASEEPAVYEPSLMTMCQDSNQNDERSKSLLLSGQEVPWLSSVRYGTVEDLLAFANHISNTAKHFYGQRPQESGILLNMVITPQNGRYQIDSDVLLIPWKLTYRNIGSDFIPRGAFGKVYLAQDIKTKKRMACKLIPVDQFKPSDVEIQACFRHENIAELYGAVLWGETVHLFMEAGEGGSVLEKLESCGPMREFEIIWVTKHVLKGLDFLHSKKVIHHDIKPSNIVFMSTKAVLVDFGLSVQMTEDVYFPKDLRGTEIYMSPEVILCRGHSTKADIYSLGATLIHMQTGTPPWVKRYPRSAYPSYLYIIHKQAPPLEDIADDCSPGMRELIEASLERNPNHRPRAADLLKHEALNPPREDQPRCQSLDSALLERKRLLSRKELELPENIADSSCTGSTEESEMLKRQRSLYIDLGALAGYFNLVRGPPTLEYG
Protocol: as §1

[3] = target: T3, GRK4 (Homo sapiens, UniProt P32298)
T3 construct: purchased Reaction Biology Europe GmbH (formerly ProQinase)
T3 sequence (P32298 whole entry): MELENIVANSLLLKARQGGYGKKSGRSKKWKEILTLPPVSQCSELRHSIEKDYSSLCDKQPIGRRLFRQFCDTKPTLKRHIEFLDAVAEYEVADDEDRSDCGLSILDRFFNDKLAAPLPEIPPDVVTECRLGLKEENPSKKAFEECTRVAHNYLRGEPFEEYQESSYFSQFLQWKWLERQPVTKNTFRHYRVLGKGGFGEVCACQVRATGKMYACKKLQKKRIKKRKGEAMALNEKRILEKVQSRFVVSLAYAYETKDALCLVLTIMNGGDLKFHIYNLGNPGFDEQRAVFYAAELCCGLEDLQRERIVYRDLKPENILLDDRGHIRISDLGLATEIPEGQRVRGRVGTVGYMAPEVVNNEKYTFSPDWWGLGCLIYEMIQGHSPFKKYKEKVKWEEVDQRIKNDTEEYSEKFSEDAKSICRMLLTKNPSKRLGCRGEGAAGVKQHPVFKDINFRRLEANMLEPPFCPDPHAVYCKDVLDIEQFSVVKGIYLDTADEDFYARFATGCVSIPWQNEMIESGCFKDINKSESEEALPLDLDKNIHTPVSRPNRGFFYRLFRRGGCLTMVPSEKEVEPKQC
Protocol: as §1

[4] = target: T4, IKKε (Homo sapiens, UniProt Q14164)
T4 construct: purchased Reaction Biology Europe GmbH (formerly ProQinase)
T4 sequence (Q14164 1-716): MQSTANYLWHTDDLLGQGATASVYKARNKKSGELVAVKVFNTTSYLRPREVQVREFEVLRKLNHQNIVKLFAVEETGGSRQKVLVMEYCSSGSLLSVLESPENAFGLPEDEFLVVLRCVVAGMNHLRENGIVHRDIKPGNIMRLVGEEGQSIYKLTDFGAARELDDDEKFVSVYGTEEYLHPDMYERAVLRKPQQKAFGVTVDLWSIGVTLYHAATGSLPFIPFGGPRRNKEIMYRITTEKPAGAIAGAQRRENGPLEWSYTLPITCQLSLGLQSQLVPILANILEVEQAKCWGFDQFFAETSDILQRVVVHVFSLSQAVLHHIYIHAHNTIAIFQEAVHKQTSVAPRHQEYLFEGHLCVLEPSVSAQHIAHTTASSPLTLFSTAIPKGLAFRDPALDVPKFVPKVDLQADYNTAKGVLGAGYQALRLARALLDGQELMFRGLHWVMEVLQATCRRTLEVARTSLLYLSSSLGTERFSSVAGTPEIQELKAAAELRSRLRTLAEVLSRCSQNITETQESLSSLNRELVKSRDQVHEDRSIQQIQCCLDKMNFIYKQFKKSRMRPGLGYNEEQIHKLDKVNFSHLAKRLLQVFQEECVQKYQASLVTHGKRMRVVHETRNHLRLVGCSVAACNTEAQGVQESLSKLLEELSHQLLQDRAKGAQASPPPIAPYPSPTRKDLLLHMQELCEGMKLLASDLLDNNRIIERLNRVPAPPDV
Protocol: as §1

[5] = target: T5, INSR (Homo sapiens, UniProt P06213)
T5 construct: purchased Reaction Biology Europe GmbH (formerly ProQinase)
T5 sequence (P06213 28-1382): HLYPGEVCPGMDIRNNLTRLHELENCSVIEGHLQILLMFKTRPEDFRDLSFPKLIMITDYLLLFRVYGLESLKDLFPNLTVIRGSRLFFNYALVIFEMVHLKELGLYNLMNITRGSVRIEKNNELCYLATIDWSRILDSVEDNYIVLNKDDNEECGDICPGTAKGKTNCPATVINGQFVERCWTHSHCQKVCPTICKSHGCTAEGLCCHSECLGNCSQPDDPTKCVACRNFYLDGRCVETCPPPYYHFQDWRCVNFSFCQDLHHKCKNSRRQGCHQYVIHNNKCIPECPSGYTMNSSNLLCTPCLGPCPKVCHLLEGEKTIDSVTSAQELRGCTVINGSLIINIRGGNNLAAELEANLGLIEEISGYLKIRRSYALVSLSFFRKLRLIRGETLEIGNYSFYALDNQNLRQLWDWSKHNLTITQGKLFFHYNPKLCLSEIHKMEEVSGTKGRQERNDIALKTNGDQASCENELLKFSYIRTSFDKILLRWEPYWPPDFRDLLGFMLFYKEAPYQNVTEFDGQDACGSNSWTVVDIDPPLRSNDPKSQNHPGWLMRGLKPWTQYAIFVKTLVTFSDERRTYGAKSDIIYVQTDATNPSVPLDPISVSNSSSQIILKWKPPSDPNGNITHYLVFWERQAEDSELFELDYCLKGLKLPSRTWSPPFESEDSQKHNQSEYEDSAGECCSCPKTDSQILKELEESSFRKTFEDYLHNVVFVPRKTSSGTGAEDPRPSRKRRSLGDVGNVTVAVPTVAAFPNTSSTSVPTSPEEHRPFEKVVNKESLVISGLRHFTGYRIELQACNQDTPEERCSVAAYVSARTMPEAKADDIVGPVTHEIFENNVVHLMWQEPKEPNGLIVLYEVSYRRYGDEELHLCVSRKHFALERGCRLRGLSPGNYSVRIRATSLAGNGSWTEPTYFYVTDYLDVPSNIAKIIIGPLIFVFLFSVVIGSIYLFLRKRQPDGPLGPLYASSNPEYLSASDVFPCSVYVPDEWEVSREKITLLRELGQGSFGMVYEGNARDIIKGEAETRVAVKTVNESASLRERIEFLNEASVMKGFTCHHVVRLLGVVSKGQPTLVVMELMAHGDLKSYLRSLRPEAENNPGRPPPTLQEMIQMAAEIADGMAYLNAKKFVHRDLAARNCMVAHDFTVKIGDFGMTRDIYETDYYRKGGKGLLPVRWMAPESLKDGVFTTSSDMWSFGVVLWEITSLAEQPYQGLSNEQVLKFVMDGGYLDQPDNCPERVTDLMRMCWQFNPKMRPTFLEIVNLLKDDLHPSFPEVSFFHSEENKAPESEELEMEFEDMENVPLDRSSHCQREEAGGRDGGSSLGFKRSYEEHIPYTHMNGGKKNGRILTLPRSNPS
Protocol: as §1

[6] = target: T6, NEK9 (Homo sapiens, UniProt Q8TD19)
T6 construct: purchased Reaction Biology Europe GmbH (formerly ProQinase)
T6 sequence (Q8TD19 1-979): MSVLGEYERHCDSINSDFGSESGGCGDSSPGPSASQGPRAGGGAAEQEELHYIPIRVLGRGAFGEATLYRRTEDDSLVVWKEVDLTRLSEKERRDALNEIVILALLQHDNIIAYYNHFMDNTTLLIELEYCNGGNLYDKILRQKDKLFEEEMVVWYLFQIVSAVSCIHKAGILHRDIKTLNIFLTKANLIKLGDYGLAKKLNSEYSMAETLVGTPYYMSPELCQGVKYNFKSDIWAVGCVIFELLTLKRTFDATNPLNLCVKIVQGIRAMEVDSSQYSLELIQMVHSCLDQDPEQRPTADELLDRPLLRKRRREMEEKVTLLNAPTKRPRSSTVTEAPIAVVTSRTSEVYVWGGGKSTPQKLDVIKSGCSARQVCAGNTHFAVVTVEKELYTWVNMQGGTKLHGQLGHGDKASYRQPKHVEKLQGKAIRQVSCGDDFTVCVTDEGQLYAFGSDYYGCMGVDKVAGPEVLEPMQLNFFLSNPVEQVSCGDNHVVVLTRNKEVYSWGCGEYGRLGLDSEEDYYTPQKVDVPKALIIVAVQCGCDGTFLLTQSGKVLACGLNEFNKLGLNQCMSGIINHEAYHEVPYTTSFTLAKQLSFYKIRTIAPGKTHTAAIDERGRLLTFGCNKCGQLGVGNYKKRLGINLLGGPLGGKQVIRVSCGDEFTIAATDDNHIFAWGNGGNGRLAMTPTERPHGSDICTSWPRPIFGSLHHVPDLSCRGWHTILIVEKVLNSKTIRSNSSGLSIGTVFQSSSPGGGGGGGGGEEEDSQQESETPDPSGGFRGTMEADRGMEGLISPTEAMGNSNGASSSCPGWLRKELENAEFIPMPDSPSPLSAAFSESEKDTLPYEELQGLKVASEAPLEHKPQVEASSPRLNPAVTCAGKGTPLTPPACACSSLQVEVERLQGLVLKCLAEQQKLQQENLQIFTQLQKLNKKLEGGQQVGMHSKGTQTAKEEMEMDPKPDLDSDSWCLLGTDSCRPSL
Protocol: as §1

Row | Structure (SMILES) | residual kinase activity ([1]; 0.03 µM) | residual kinase activity ([1]; 0.3 µM) | residual kinase activity ([2]; 0.03 µM) | residual kinase activity ([2]; 0.3 µM) | residual kinase activity ([3]; 0.03 µM) | residual kinase activity ([3]; 0.3 µM) | residual kinase activity ([4]; 0.03 µM) | residual kinase activity ([4]; 0.3 µM) | residual kinase activity ([5]; 0.03 µM) | residual kinase activity ([5]; 0.3 µM) | residual kinase activity ([6]; 0.03 µM) | residual kinase activity ([6]; 0.3 µM) | residual kinase activity ([1]; 3 µM) | residual kinase activity ([2]; 3 µM) | residual kinase activity ([3]; 3 µM) | residual kinase activity ([4]; 3 µM) | residual kinase activity ([5]; 3 µM) | residual kinase activity ([6]; 3 µM)
1 | COc1ccnc2[nH]cc(-c3cc(N)nc(N)c3)c12 [meriolin 16] | 101 % of control | 75 % of control | 104 % of control | 86 % of control | 101 % of control | 90 % of control | 94 % of control | 61 % of control | 96 % of control | 91 % of control | 89 % of control | 87 % of control | – | – | – | – | – | –
2 | c1ccc(CNc2cc(-c3c[nH]c4ncccc34)ccn2)cc1 [meriolin 36] | – | 75 % of control | – | 85 % of control | – | 108 % of control | – | 40 % of control | – | 82 % of control | – | 88 % of control | 28 % of control | 92 % of control | 95 % of control | 6 % of control | 36 % of control | 67 % of control
